- melting point: 122 to 123 °C
Structure (SMILES): O=C(NCC1CCN(C(=O)OCc2ccccc2)CC1)c1ccc(O)cc1 [Example 1, 4-[(4-Hydroxy-benzoylamino)-methyl]-piperidine-1-carboxylic acid benzyl ester]
